Experimental data from patent US20240116921A1, “LACTAM (HETERO)[…] DERIVATIVES AS INHIBITORS OF ERBB2” (EnLiven Therapeutics, Inc., priority 2020, published 2024).
Counter-ions that a name gives are not always drawn.

Columns and labels:
[1] = target: T1, phosphorylated ERBB2 (pERBB2) (Homo sapiens, UniProt P04626); experiment: Detection of phosphorylated ERBB2 (pERBB2) by ELISA in BT-474 cells; format: cell-based; conditions: four hours incubation
T1 construct: endogenous in cells; host or cells: BT-474
Summary of the method: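 Phospho-ERBB2 in lysates was quantified by sandwich ELISA (A450, TMB) after 4 h compound exposure at 37 °C of BT-474 cells seeded at 2.0×10^4 per well. Compounds tested at 10 µM to 0.01 nM final in four-fold steps; activity normalized to DMSO (0.1%) high and cell-free low controls.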

[2] = target: Ba/F3 ERBB2 A775_G776insYVMA (Homo sapiens, UniProt P04626, DUP772-775, cells depend on it); experiment: Cell viability assay, Ba/F3 ERBB2 A775_G776insYVMA; format: cell-based, mouse; conditions: Ba/F3 ERBB2 YVMA cells, cell viability, 72 hours, CellTiter Glo; Table B5; read-out: Ba/F3 ERBB2 YVMA, IC50
Summary of the method: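 Viability after 72 h compound treatment (37 °C, 5% CO2) was quantified by CellTiter-Glo luminescence of intracellular ATP, with sigmoidal dose-response fitting. Cells were retrovirally engineered Ba/F3 lines whose growth depends on the mutant human ERBB2 in place of IL-3, plated at 3000 per well.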

[3] = target: T2, phosphorylated EGFR (pEGFR) (Homo sapiens, UniProt P00533); experiment: Detection of phosphorylated EGFR (pEGFR) in EGF-stimulated A431 cells; format: cell-based; conditions: A431 cells (10% FBS), 4 hours incubation, EGF 30 ng/mL 10 minutes, AlphaLISA
T2 construct: performed to measure phosphorylated EGFR levels using A431 cells (10% FBS); endogenous in cells; host or cells: A431
Summary of the method: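 AlphaLISA read-out of EGFR phosphorylation after a 10-min EGF pulse (30 ng/mL final). A431 cells (10% FBS) had been exposed to compound for 4 h at 37 °C. IC50 was fitted from % inhibition normalised to DMSO and staurosporine control lysates.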

Sequence of Ba/F3 ERBB2 A775_G776insYVMA (P04626 with tags, fused parts or gaps DUP772-775): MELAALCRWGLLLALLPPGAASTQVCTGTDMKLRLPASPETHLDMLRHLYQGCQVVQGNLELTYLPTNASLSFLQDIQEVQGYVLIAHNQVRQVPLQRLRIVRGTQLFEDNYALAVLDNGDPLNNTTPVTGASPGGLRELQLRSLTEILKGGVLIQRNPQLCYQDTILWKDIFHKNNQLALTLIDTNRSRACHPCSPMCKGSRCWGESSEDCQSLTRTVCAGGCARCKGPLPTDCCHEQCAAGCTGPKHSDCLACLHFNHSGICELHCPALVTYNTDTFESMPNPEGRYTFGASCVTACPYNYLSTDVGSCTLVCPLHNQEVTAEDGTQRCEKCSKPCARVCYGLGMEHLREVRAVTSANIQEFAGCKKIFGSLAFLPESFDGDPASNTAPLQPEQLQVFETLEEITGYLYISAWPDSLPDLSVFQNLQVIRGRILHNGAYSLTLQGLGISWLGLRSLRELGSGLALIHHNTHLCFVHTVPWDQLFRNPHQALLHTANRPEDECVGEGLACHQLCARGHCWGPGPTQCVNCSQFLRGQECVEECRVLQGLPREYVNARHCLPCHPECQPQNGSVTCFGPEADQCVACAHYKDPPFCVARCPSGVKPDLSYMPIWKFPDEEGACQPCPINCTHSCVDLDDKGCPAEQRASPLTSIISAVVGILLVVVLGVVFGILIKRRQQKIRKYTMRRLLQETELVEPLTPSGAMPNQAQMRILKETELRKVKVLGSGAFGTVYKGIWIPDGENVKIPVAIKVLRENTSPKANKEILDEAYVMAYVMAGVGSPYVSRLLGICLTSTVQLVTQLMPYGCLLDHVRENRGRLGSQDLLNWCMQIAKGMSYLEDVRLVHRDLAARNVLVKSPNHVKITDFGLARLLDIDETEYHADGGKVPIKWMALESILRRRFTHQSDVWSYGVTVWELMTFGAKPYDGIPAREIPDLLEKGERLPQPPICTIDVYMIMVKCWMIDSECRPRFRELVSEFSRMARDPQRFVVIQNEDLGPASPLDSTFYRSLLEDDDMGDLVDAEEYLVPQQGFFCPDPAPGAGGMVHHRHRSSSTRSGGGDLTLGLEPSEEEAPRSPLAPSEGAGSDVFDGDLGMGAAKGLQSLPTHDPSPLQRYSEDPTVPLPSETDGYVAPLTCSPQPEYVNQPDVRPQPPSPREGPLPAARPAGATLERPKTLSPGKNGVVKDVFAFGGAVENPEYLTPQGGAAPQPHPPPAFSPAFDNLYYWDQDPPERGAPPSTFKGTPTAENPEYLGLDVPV
T1 sequence (P04626 23-1255): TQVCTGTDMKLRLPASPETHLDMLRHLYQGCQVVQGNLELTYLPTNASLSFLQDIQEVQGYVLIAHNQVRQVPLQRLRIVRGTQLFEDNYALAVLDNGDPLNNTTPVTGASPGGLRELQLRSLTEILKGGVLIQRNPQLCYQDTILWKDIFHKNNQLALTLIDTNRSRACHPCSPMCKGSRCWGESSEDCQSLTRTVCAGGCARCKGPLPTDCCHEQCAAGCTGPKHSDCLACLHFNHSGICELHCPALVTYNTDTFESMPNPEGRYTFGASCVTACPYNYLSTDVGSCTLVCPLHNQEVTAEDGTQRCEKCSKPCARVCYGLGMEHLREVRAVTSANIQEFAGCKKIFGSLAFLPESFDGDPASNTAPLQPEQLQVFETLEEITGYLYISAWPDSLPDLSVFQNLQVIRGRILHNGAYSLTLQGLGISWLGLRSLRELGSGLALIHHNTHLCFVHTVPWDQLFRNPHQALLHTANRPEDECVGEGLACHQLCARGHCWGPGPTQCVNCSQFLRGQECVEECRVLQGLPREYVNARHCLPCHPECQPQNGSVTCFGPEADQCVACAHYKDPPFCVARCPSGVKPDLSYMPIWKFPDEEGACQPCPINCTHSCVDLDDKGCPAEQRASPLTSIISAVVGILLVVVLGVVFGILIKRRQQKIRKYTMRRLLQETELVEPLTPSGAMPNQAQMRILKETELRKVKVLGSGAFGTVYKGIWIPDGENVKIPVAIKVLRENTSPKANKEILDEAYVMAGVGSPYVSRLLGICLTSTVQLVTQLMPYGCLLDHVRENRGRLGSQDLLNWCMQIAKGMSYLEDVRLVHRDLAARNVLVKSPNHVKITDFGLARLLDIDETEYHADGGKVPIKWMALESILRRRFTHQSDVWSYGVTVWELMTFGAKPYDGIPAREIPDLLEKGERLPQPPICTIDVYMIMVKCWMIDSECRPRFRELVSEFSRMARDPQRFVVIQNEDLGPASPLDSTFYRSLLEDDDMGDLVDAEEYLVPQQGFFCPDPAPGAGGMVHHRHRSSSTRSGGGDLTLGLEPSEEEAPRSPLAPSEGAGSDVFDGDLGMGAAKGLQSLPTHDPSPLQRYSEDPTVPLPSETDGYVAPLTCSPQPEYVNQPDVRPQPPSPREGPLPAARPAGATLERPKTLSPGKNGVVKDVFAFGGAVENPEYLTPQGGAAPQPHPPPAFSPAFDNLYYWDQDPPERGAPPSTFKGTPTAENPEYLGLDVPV
T2 sequence (P00533 25-1210): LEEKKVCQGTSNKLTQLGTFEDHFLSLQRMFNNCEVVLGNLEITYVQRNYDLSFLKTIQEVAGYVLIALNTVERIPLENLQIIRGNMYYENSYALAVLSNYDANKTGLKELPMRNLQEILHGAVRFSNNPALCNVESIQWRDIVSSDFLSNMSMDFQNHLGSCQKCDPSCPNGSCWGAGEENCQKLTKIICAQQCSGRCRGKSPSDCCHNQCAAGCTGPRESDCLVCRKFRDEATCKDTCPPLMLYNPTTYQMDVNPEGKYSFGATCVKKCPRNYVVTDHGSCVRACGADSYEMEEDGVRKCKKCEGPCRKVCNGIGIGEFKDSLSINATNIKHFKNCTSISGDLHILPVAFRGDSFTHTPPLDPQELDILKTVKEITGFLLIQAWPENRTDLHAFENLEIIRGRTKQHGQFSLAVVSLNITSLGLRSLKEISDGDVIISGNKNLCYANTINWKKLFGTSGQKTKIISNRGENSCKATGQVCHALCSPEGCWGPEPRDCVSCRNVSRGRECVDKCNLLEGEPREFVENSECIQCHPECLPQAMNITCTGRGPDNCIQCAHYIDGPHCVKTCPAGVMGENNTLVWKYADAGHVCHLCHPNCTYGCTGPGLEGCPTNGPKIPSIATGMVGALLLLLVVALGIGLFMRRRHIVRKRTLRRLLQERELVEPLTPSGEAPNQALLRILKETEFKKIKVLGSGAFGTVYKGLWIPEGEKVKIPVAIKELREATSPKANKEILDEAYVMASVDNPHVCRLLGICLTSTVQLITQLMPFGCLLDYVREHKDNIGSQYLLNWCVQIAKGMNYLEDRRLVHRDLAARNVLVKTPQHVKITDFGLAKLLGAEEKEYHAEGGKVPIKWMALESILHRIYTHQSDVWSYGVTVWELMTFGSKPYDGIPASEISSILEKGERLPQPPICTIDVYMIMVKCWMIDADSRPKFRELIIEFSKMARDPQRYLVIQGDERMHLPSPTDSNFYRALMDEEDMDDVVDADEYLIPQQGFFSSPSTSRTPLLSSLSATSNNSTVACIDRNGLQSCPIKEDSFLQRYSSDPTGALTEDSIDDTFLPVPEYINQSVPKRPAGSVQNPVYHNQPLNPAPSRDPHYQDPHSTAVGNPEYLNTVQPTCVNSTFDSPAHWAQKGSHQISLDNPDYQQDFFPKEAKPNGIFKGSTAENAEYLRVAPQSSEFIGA

Structure (SMILES) | IC50 [1] [nM] | GI50 [2] [nM] | IC50 [3] [nM]
Cc1cc(Nc2ncnc3ccc(N4CC/C(=C\CN(C)C)C4=O)nc23)ccc1Oc1ccn(C(F)F)c(=O)c1 [Compound 55, 1-(difluoromethyl)-4-[4-({6-[(3E)-3-[2-(dimethylamino)ethylidene]-2-oxopyrrolidin-1-yl]pyrido[3,2-d]pyrimidin-4-yl}amino)-2-methylphenoxy]pyridin-2-one] | 23.1 | 23 | 250
C=C1CCN(c2cc3c(Nc4ccc(Oc5ccn6ncnc6c5)c(C)c4)ncnc3cc2OCCN(C)C)C1=O [Compound 56, 1-{7-[2-(dimethylamino)ethoxy]-4-[(3-methyl-4-{[1,2,4]triazolo[1,5-a]pyridin-7-yloxy}phenyl)amino]quinazolin-6-yl}-3-methylidenepyrrolidin-2-one] | 6520 | > 500 | > 10000
C=C1C(=O)N(c2ccc3ncnc(Nc4ccc(Oc5ccc6c(c5)ncn6C)c(C)c4)c3n2)C[C@H]1C [Compound 59, (4S)-4-methyl-1-[4-({3-methyl-4-[(1-methyl-1,3-benzodiazol-5-yl)oxy]phenyl}amino)pyrido[3,2-d]pyrimidin-6-yl]-3-methylidenepyrrolidin-2-one] | 60.7 | 13.4 | 710
Cc1cc(Nc2ncnc3cnc(N4CC/C(=C\CCN(C)C)C4=O)cc23)ccc1Oc1ccn2ncnc2c1 [Compound 60, (E)-1-(4-(4-([1,2,4]triazolo[1,5-a]pyridin-7-yloxy)-3-methylphenylamino)pyrido[3,4-d]pyrimidin-6-yl)-3-(3-(dimethylamino)propylidene)pyrrolidin-2-one formate] | 12 | 22.5 | 3040
Cc1cc(Nc2ncnc3ccc(N4CC/C(=C\CN(C)C)C4=O)nc23)ccc1Oc1ccc2nccnc2c1 [Compound 61, (E)-3-(2-(dimethylamino)ethylidene)-1-(4-(3-methyl-4-(quinoxalin-6-yloxy)phenylamino)pyrido[3,2-d]pyrimidin-6-yl)pyrrolidin-2-one] | 132 | 7.15 | 1010
Cc1cc(Nc2ncnc3ccc(N4CC/C(=C\CN(C)C)C4=O)nc23)ccc1Oc1cccnc1 [Compound 62, (3E)-3-[2-(dimethylamino)ethylidene]-1-(4-{[3-methyl-4-(pyridin-3-yloxy)phenyl]amino}pyrido[3,2-d]pyrimidin-6-yl)pyrrolidin-2-one] | 23.9 | 4.36 | 212
CCn1cnc2cc(Oc3ccc(Nc4ncnc5ccc(N6CC/C(=C\CN(C)C)C6=O)nc45)cc3C)ccc21 [Compound 65, (3E)-3-[2-(dimethylamino)ethylidene]-1-[4-({4-[(1-ethyl-1,3-benzodiazol-5-yl)oxy]-3-methylphenyl}amino)pyrido[3,2-d]pyrimidin-6-yl]pyrrolidin-2-one] | 128 | 36.4 | > 10000
Cc1cc(Nc2ncnc3ccc(N4CC/C(=C\CN(C)C)C4=O)nc23)ccc1Oc1ccc2ocnc2c1 [Compound 66, (E)-1-(4-((4-(benzo[d]oxazol-5-yloxy)-3-methylphenyl)amino)pyrido[3,2-d]pyrimidin-6-yl)-3-(2-(dimethylamino)ethylidene)pyrrolidin-2-one] | 34.2 | 1.95 | 93.6
Cc1cc(Nc2ncnc3ccc(N4CC/C(=C\CN(C)C)C4=O)nc23)ccc1Oc1ccc2scnc2c1 [Compound 67, (E)-1-(4-((4-(benzo[d]thiazol-5-yloxy)-3-methylphenyl)amino)pyrido[3,2-d]pyrimidin-6-yl)-3-(2-(dimethylamino)ethylidene)pyrrolidin-2-one] | 44.2 | 1.82 | 53.2
Cc1cc(Nc2ncnc3ccc(N4CC/C(=C\CN(C)C)C4=O)nc23)ccc1Oc1ccc2c(c1)nnn2C [Compound 68, (3E)-3-[2-(dimethylamino)ethylidene]-1-[4-({3-methyl-4-[(1-methyl-1,2,3-benzotriazol-5-yl)oxy]phenyl}amino)pyrido[3,2-d]pyrimidin-6-yl]pyrrolidin-2-one] | 30.5 | 3.81 | 973
Cc1c(Oc2ccc3c(c2)ncn3C)ccc(Nc2ncnc3ccc(N4CC/C(=C\CN(C)C)C4=O)nc23)c1F [Compound 69, (3E)-3-[2-(dimethylamino)ethylidene]-1-[4-({2-fluoro-3-methyl-4-[(1-methyl-1,3-benzodiazol-5-yl)oxy]phenyl}amino)pyrido[3,2-d]pyrimidin-6-yl]pyrrolidin-2-one] | 56.4 | 3.57 | > 10000
Cc1cc(Nc2ncnc3ccc(N4CC/C(=C\CN(C)C)C4=O)nc23)c(F)cc1Oc1ccc2c(c1)ncn2C [Compound 70, (3E)-3-[2-(dimethylamino)ethylidene]-1-[4-({2-fluoro-5-methyl-4-[(1-methyl-1,3-benzodiazol-5-yl)oxy]phenyl}amino)pyrido[3,2-d]pyrimidin-6-yl]pyrrolidin-2-one] | 34.4 | 4.29 | 1990
Cc1cc(Nc2ncnc3ccc(N4CC/C(=C\CN(C)C)C4=O)nc23)ccc1Oc1ccn2ccnc2c1 [Compound 71, (3E)-3-[2-(dimethylamino)ethylidene]-1-{4-[(4-{imidazo[1,2-a]pyridin-7-yloxy}-3-methylphenyl)amino]pyrido[3,2-d]pyrimidin-6-yl}pyrrolidin-2-one] | 25.7 | 2.56 | 273
CCc1ccc(Oc2ccc(Nc3ncnc4ccc(N5CC/C(=C\CN(C)C)C5=O)nc34)cc2C)cn1 [Compound 72, (E)-3-(2-(dimethylamino)ethylidene)-1-(4-((4-((6-ethylpyridin-3-yl)oxy)-3-methylphenyl)amino)pyrido[3,2-d]pyrimidin-6-yl)pyrrolidin-2-one] | 44.9 | 5.37 | 1880
CCc1ccc(Oc2ccc(Nc3ncnc4cnc(N5CC/C(=C\CN(C)C)C5=O)cc34)cc2C)cn1 [Compound 73, (E)-3-(2-(dimethylamino)ethylidene)-1-(4-((4-((6-ethylpyridin-3-yl)oxy)-3-methylphenyl)amino)pyrido[3,4-d]pyrimidin-6-yl)pyrrolidin-2-one] | 41.5 | 22 | 514
Cc1cc(Nc2ncnc3cnc(N4CC/C(=C\CN(C)C)C4=O)cc23)ccc1Oc1ccn2ncnc2c1 [Compound 74, (3E)-3-[2-(dimethylamino)ethylidene]-1-{4-[(3-methyl-4-{[1,2,4]triazolo[1,5-a]pyridin-7-yloxy}phenyl)amino]pyrido[3,4-d]pyrimidin-6-yl}pyrrolidin-2-one] | 5.43 | 5.17 | 2970
Cc1ccc(Oc2ccc(Nc3ncnc4cnc(N5CC/C(=C\CN(C)C)C5=O)cc34)cc2C)cn1 [Compound 75, (3E)-3-[2-(dimethylamino)ethylidene]-1-[4-({3-methyl-4-[(6-methylpyridin-3-yl)oxy]phenyl}amino)pyrido[3,4-d]pyrimidin-6-yl]pyrrolidin-2-one] | 20.4 | 10.4 | 697
Cc1cc(Nc2ncnc3cnc(N4CC/C(=C\CN(C)C)C4=O)cc23)c(F)cc1Oc1ccc2c(c1)ncn2C [Compound 76, (3E)-3-[2-(dimethylamino)ethylidene]-1-[4-({2-fluoro-5-methyl-4-[(1-methyl-1,3-benzodiazol-5-yl)oxy]phenyl}amino)pyrido[3,4-d]pyrimidin-6-yl]pyrrolidin-2-one] | > 10000 | > 500 | > 10000
Cc1c(Oc2ccc3c(c2)ncn3C)ccc(Nc2ncnc3cnc(N4CC/C(=C\CN(C)C)C4=O)cc23)c1F [Compound 77, (3E)-3-[2-(dimethylamino)ethylidene]-1-[4-({2-fluoro-3-methyl-4-[(1-methyl-1,3-benzodiazol-5-yl)oxy]phenyl}amino)pyrido[3,4-d]pyrimidin-6-yl]pyrrolidin-2-one] | 18.4 | 3.61 | 7490
Cc1c(Oc2ccn3ncnc3c2)ccc(Nc2ncnc3ccc(N4CC/C(=C\CN(C)C)C4=O)nc23)c1F [Compound 78, (3E)-3-[2-(dimethylamino)ethylidene]-1-{4-[(2-fluoro-3-methyl-4-{[1,2,4]triazolo[1,5-a]pyridin-7-yloxy}phenyl)amino]pyrido[3,2-d]pyrimidin-6-yl}pyrrolidin-2-one hydrochloride] | 16.8 | 9.92 | 1570
Cc1cc(Nc2ncnc3ccc(N4CC/C(=C\CN(C)C)C4=O)nc23)c(F)cc1Oc1ccn2ncnc2c1 [Compound 79, (3E)-3-[2-(dimethylamino)ethylidene]-1-{4-[(2-fluoro-5-methyl-4-{[1,2,4]triazolo[1,5-a]pyridin-7-yloxy}phenyl)amino]pyrido[3,2-d]pyrimidin-6-yl}pyrrolidin-2-one] | 8.77 | 2.92 | > 10000
